Laboratory results: patent US8501778B2, “Aralkyl piperidine derivatives and their uses as antalgic or ataractic agent” (priority 2008, dated 2013)
Structures can show the parent of a compound that is named as a salt.

Each compound was assayed on Kunming mice (assay: Acetic Acid Twisting Method in mice (antalgic effect)). Details: Mus musculus, po; 20 mg/kg, gavage administration, mice; read-out: twisting response inhibiting rate (%).
Assay type: in vivo

`CC(=O)Oc1ccccc1C(=O)O` [Aspirin, reference compound] gave an inhibition in vivo at 20 mg/kg of 90%.

Same assay, conditions: Mus musculus, sc, read-out: antalgic

Compared with `COc1ccc(CN2CCC(O)(CC(O)c3ccccc3)CC2)cc1` (stereo not shown) [Compound V-1, N-p-methoxybenzyl-4-(2-hydroxy-2-phenylethyl)-4-piperidinol hydrochloride], `COc1ccc(C(=O)CC2(O)CCN(Cc3ccccc3)CC2)cc1` [III-32, N-benzyl-4-(p-methoxybenzoylmethyl)-4-piperidinol hydrobromide] is lower in inhibition in vivo at 20 mg/kg: 76% for the first, 49% for the second.

First: OC(CC1(O)CCN(Cc2ccc3c(c2)OCO3)CC1)c1ccccc1 (stereo not shown) [Compound V-4, N-(benzo[d][1,3]dioxol-5-ylmethyl)-4-(2-hydroxy-2-phenylethyl)-4-piperidinol hydrochloride]
Second: O=C(CC1(O)CCN(Cc2ccc3c(c2)OCO3)CC1)c1ccccc1 [III-13, N-(benzo[d][1,3]dioxol-5-ylmethyl)-4-benzoylmethyl-4-piperidinol hydrochloride]
The inhibition in vivo at 20 mg/kg of the first is higher: 76% for the first, 37% for the second.

Compared with `COc1ccccc1N1CCC(O)(CC(O)c2ccccc2)CC1` (stereo not shown) [Compound V-5, N-(2-methoxyphenyl)-4-(2-hydroxy-2-phenylethyl)-4-piperidinol hydrochloride], `COc1ccccc1N1CCC(O)(CC(=O)c2ccccc2)CC1` [III-12, N-(2′-methoxyphenyl)-4-benzoylmethyl-4-piperidinol hydrochloride] is lower in inhibition in vivo at 20 mg/kg: 72% for the first, 21% for the second.

Going from `OC(CC1(O)CCN(Cc2ccc3c(c2)CCN3)CC1)c1ccccc1` (stereo not shown) [Compound V-6, N-(5-indolinyl)methyl-4-(2-hydroxy-2-phenylethyl)-4-piperidinol hydrochloride] to `O=C(CC1(O)CCN(Cc2ccc3c(c2)CCN3)CC1)c1ccccc1` [III-30, N-(5-indolinyl)methyl-4-benzoylmethyl-4-piperidinol hydrochloride], the inhibition in vivo at 20 mg/kg falls from 69% to 42%.

First: CC(c1ccc(N2CCOCC2)cc1)N1CCC(O)(CC(O)c2ccccc2)CC1 (stereo not shown) [Compound V-8, N-(1-(4-morpholinophenyl)ethyl)-4-(2-hydroxy-2-phenylethyl)-4-piperidinol hydrochloride]
Second: CC(c1ccc(N2CCOCC2)cc1)N1CCC(O)(CC(=O)c2ccccc2)CC1 (stereo not shown) [III-27, N-(1-(4-morpholinophenyl)ethyl)-4-benzoylmethyl-4-piperidinol hydrochloride]
The inhibition in vivo at 20 mg/kg of the first is lower: 77% for the first, 92% for the second.

First: O=C(CC1(O)CCN(Cc2ccc(Cl)cc2)CC1)c1ccccc1 [III-2, N-p-chlorobenzyl-4-benzoylmethyl-4-piperidinol hydrochloride]
Second: O=C(CC1(O)CCN(Cc2ccccc2)CC1)c1ccc(Cl)cc1 [III-33, N-benzyl-4-(p-chlorobenzoylmethyl)-4-piperidinol hydrobromide]
The inhibition in vivo at 20 mg/kg of the first is lower: 14% for the first, 26% for the second.

Compared with `O=C(CC1(O)CCN(Cc2ccccn2)CC1)c1ccccc1` [III-8, N-(2-pyridyl)methyl-4-benzoylmethyl-4-piperidinol hydrochloride], `O=C(CC1(O)CCN(Cc2ncccn2)CC1)c1ccccc1` [III-10, N-(2-pyrimidinyl)methyl-4-benzoylmethyl-4-piperidinol hydrochloride] is lower in inhibition in vivo at 20 mg/kg: 77% for the first, 51% for the second.

Compared with `O=C(CC1(O)CCN(c2ncccn2)CC1)c1ccccc1` [III-9, N-(2-pyrimidinyl)-4-benzoylmethyl-4-piperidinol hydrochloride], `O=C(CC1(O)CCN(c2ccc3ccccc3n2)CC1)c1ccccc1` [III-11, N-(2-quinolyl)-4-benzoylmethyl-4-piperidinol hydrochloride] is lower in inhibition in vivo at 20 mg/kg: 57% for the first, 44% for the second.

First: COc1cc(CN2CCC(O)(CC(=O)c3ccccc3)CC2)cc(OC)c1OC [III-14, N-(3,4,5-trimethoxybenzyl)-4-benzoylmethyl-4-piperidinol hydrochloride]
Second: O=C1Cc2cc(CN3CCC(O)(CC(=O)c4ccccc4)CC3)ccc2N1 [III-29, N-(2-oxo-5-indolinyl)methyl-4-benzoylmethyl-4-piperidinol hydrochloride]
The inhibition in vivo at 20 mg/kg of the first is higher: 54% for the first, 45% for the second.

Compared with `CC(c1ccccc1)N1CCC(O)(CC(=O)c2ccccc2)CC1` (stereo not shown) [III-16, N-(1-phenylethyl)-4-benzoylmethyl-4-piperidinol hydrochloride], `C[C@H](c1ccccc1)N1CCC(O)(CC(=O)c2ccccc2)CC1` [III-17, (R)—N-(1-phenylethyl)-4-benzoylmethyl-4-piperidinol hydrochloride] is higher in inhibition in vivo at 20 mg/kg: 33% for the first, 66% for the second.

First: C[C@@H](c1ccccc1)N1CCC(O)(CC(=O)c2ccccc2)CC1 [III-18, (S)—N-(1-phenylethyl)-4-benzoylmethyl-4-piperidinol hydrochloride]
Second: CC(c1ccc(F)cc1)N1CCC(O)(CC(=O)c2ccccc2)CC1 (stereo not shown) [III-20, N-(1-(4-fluorophenyl)ethyl)-4-benzoylmethyl-4-piperidinol hydrochloride]
The inhibition in vivo at 20 mg/kg of the first is higher: 84% for the first, 37% for the second.

Compared with `COc1ccc(C(C)N2CCC(O)(CC(=O)c3ccccc3)CC2)cc1` (stereo not shown) [III-19, N-(1-(4-methoxyphenyl)ethyl)-4-benzoylmethyl-4-piperidinol hydrochloride], `CC(c1ccc(N)cc1)N1CCC(O)(CC(=O)c2ccccc2)CC1` (stereo not shown) [III-21, N-(1-(4-aminophenyl)ethyl)-4-benzoylmethyl-4-piperidinol hydrochloride] is lower in inhibition in vivo at 20 mg/kg: 91% for the first, 57% for the second.

First: CC(c1ccc2c(c1)OCO2)N1CCC(O)(CC(=O)c2ccccc2)CC1 (stereo not shown) [III-22, N-(1-(benzo[d][1,3]dioxol-5-yl)ethyl)-4-benzoylmethyl-4-piperidinol hydrochloride]
Second: CC(c1ccc(N2CCCC2)cc1)N1CCC(O)(CC(=O)c2ccccc2)CC1 (stereo not shown) [III-25, N-(1-(4-(1-pyrrolidinyl)phenyl)ethyl)-4-benzoylmethyl-4-piperidinol hydrochloride]
The inhibition in vivo at 20 mg/kg of the first is lower: 43% for the first, 80% for the second.

Going from `O=C(CC1(O)CCN(Cc2ccc(N3CCCC3)cc2)CC1)c1ccccc1` [III-24, N-(4-(1-pyrrolidinyl)benzyl)-4-benzoylmethyl-4-piperidinol hydrochloride] to `O=C(CC1(O)CCN(Cc2ccc(N3CCCCC3)cc2)CC1)c1ccccc1` [III-28, N-(4-(1-piperidinyl)benzyl)-4-benzoylmethyl-4-piperidinol hydrochloride], the inhibition in vivo at 20 mg/kg rises from 62% to 64%.

Going from `O=C(CC1(O)CCN(Cc2ccc(N3CCOCC3)cc2)CC1)c1ccccc1` [III-26, N-(4-morpholinobenzyl)-4-benzoylmethyl-4-piperidinol hydrochloride] to `O=C(CC1(O)CCN(Cc2ccccc2)CC1)c1ccc(N2CCOCC2)cc1` [III-36, N-benzyl-4-((4-morpholinobenzoyl)methyl)-4-piperidinol hydrochloride], the inhibition in vivo at 20 mg/kg falls from 64% to 41%.

Compared with `O=C(CC1(O)CCN(Cc2ccccc2)CC1)c1ccccn1` [III-34, N-benzyl-4-(2-pyridinylformylmethyl)-4-piperidinol hydrobromide], `O=C(CC1(O)CCN(Cc2ccccc2)CC1)c1ccc2c(c1)CCN2` [III-37, N-benzyl-4-(2-(5-indolinyl)-2-oxoethyl)-4-piperidinol hydrochloride] is lower in inhibition in vivo at 20 mg/kg: 75% for the first, 52% for the second.

`O=C(CC1(O)CCN(Cc2ccccc2)CC1)c1ccc(N2CCCC2)cc1` [III-35, N-benzyl-4-(4-(pyrrolidinyl)benzoylmethyl)-4-piperidinol hydrochloride] was tested, and the inhibition in vivo at 20 mg/kg was 64%.
